Experimental data from patent US12329747B2, “Use of lipophilic beta-lactam antibiotics and carboxylate esters for the treatment of bacterial infections within citrus and other plant species” (priority 2019, dated 2025).
Structures can show the parent of a compound that is named as a salt.

What was measured:
HLB = details: cited from earlier work; for effect on HLB infected trees: spraying or common treatment, background statement
citrus leaves = details: external application, background statement; cited from earlier work
[1] = tested on: Murcott mandarin clippings; assay: Foliar application to citrus clippings, negative ESI mass spectrum of reservoir water after 24 hours; details: 25 μmoles in 1:1 neem oil, 24 hour incubation; for penicillin G/V or metabolite peaks detected in reservoir water: negative ESI mass spectrum
[2] = tested on: fire blight (Erwinia amylovera); details: background statement; cited from earlier work
Candidatus Liberibacter = details: background statement, cited from earlier work; for effectiveness against the pathogenic bacteria: grafting method

Row | Molecule | hydrolysis of the ester into the active antibiotic by citrus tissue [1] | penetration of waxy cuticle layer and epidermis to access the phloem [1] | penicillin G/V or metabolite peaks detected in reservoir water [1] | also measured
1 | [Cu] [Copper] |  |  |  | effect on HLB infected trees (HLB): not been found to be effective
2 | CC[C@H]1CCC[C@H](O[C@H]2CC[C@H](N(C)C)[C@@H](C)O2)[C@@H](C)C(=O)C2=C[C@@H]3[C@@H](C=C[C@@H]4C[C@@H](O[C@@H]5O[C@@H](C)[C@H](OC)[C@@H](OC)[C@H]5OC)C[C@@H]34)[C@@H]2CC(=O)O1 [Spinosyn A] |  |  |  | penetration of citrus leaves or stems (citrus leaves): known to readily penetrate citrus leaves
3 | COC(=O)[C@@H]1N2C(=O)[C@@H](NC(=O)Cc3ccccc3)[C@H]2SC1(C)C [product compound 1, Methyl(2S,5R,6R)-3,3-dimethyl-7-oxo-6-(2-phenylacetamido)-4-thia-1-azabicyclo[3.2.0]heptane-2-carboxylate] | not being successfully metabolized to the active antibiotic | affectively penetrate through the waxy cuticle layer and through the epidermis to access the phloem |  | 
4 | COC(=O)[C@@H]1N2C(=O)[C@@H](NC(=O)COc3ccccc3)[C@H]2SC1(C)C [product compound 2, Methyl(2S,5R,6R)-3,3-dimethyl-7-oxo-6-(2-phenoxyacetamido)-4-thia-1-azabicyclo[3.2.0]heptane-2-carboxylate] | not being successfully metabolized to the active antibiotic | affectively penetrate through the waxy cuticle layer and through the epidermis to access the phloem |  | 
5 | CC1(C)S[C@@H]2[C@H](NC(=O)Cc3ccccc3)C(=O)N2[C@H]1C(=O)OCc1ccccc1 [product compound 3, Benzyl(2S,5R,6R)-3,3-dimethyl-7-oxo-6-(2-phenylacetamido)-4-thia-1-azabicyclo[3.2.0]heptane-2-carboxylate] |  | substantially reduce permeability | no recognizable metabolite peaks were detected | 
6 | CC1(C)S[C@@H]2[C@H](NC(=O)COc3ccccc3)C(=O)N2[C@H]1C(=O)OCc1ccccc1 [product compound 4, Benzyl(2S,5R,6R)-3,3-dimethyl-7-oxo-6-(2-phenoxyacetamido)-4-thia-1-azabicyclo[3.2.0]heptane-2-carboxylate] |  | substantially reduce permeability | no recognizable metabolite peaks were detected | 
7 | CCCCCCCCCC(=O)OCOC(=O)[C@@H]1N2C(=O)[C@@H](NC(=O)Cc3ccccc3)[C@H]2SC1(C)C [product compound 5, (Decanoyloxy)methyl (2S,5R,6R)-3,3-dimethyl-7-oxo-6-(2-phenylacetamido)-4-thia-1-azabicyclo[3.2.0]heptane-2-carboxylate] | hydrolyzed into the active antibiotic | affectively penetrate through the waxy cuticle layer and through the epidermis to access the phloem | base peaks in the mass spectrum corresponded to the active antibiotics | 
8 | CCCCCCCCCC(=O)OCOC(=O)[C@@H]1N2C(=O)[C@@H](NC(=O)COc3ccccc3)[C@H]2SC1(C)C [product compound 6, (Decanoyloxy)methyl(2S,5R,6R)-3,3-dimethyl-7-oxo-6-(2-phenoxyacetamido)-4-thia-1-azabicyclo[3.2.0]heptane-2-carboxylate] | hydrolyzed into the active antibiotic | affectively penetrate through the waxy cuticle layer and through the epidermis to access the phloem | base peaks in the mass spectrum corresponded to the active antibiotics | 
9 | CC(C)(C)C(=O)OCOC(=O)[C@@H]1N2C(=O)[C@@H](NC(=O)Cc3ccccc3)[C@H]2SC1(C)C [product compound 7, (Pivaloyloxy)methyl (2S,5R,6R)-3,3-dimethyl-7-oxo-6-(2-phenylacetamido)-4-thia-1-azabicyclo[3.2.0]heptane-2-carboxylate] | hydrolyzed into the active antibiotic | affectively penetrate through the waxy cuticle layer and through the epidermis to access the phloem | base peaks in the mass spectrum corresponded to the active antibiotics | 
10 | CC(C)(C)C(=O)OCOC(=O)[C@@H]1N2C(=O)[C@@H](NC(=O)COc3ccccc3)[C@H]2SC1(C)C [product compound 8, (Pivaloyloxy)methyl (2S,5R,6R)-3,3-dimethyl-7-oxo-6-(2-phenoxyacetamido)-4-thia-1-azabicyclo[3.2.0]heptane-2-carboxylate] | hydrolyzed into the active antibiotic | affectively penetrate through the waxy cuticle layer and through the epidermis to access the phloem | base peaks in the mass spectrum corresponded to the active antibiotics | 
11 | [H]/N=C(/N)N[C@H]1[C@H](O)[C@@H](O)[C@H](O[C@@H]2O[C@@H](C)[C@](O)(C=O)[C@H]2O[C@@H]2O[C@@H](CO)[C@H](O)[C@@H](O)[C@@H]2NC)[C@@H](N/C(N)=N\[H])[C@@H]1O [streptomycin sulfate] |  |  |  | effect on HLB infected trees (HLB): only marginally improved the health of trees; bactericidal or bacteriostatic action [2]: bactericidal
12 | benzylpenicillin (penicillin G) |  |  |  | effect on tree health (HLB; direct injected into infected citrus trees, alone or in combinations with other antibiotics): marked improvement; phytotoxicity (Candidatus Liberibacter): very little phytotoxicity; effectiveness against the pathogenic bacteria (Candidatus Liberibacter): extremely effective; penetration of citrus leaves or stems (citrus leaves): do not easily penetrate the waxy cuticle covering
13 | phenoxymethylpenicillin (penicillin V) |  |  |  | phytotoxicity (Candidatus Liberibacter): very little phytotoxicity; effectiveness against the pathogenic bacteria (Candidatus Liberibacter): extremely effective; penetration of citrus leaves or stems (citrus leaves): do not easily penetrate the waxy cuticle covering
